Assay results published in patent US10150760B2, “Compounds for use in preparing heterocyclic triazole agonists of the APJ receptor” (AMGEN INC., priority 2016, dated 2018).

Target: human APJ receptor (Homo sapiens (Human), UniProt P35414)
Assay: [35S]GTPγS binding assay on membranes from CHO cells stably expressing human APJ receptor
Type: biochemical
Settings: read-out: Activity hAPJ SPA EC50 IP
Procedure, shortened: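 Membranes from CHO cells stably expressing human APJ incubated with ligand, 0.2 nM [35S]GTPγS and WGA SPA beads in HEPES pH 7.5 with 5 mM MgCl2, 200 mM NaCl, 3 μM GDP, 90 min at RT. Nonspecific binding defined with 100 μM GTPγS; EC50 by non-linear regression.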

Chain of human APJ receptor (P35414 whole entry): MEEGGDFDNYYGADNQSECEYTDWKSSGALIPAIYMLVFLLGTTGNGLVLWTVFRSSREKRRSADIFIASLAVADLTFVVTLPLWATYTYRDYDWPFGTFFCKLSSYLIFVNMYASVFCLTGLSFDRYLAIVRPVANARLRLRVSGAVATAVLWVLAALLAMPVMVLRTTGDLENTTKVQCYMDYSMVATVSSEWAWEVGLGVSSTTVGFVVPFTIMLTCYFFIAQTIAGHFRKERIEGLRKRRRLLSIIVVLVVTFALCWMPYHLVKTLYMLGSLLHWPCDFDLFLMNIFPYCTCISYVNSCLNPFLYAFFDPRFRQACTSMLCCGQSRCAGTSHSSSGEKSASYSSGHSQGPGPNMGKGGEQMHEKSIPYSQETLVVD

SMILES	EC50
COCC1(n2c(NS(=O)(=O)[C@@H](C)[C@H](OC)c3ncc(Cl)cn3)nnc2[C@H]2CC[C@@H](C)O2)CC1 (single isomer, unassigned) [Example 286.0, (1R,2S)-1-(5-chloropyrimidin-2-yl)-1-methoxy-N-(4-(1-(methoxymethyl)cyclopropyl)-5-((2S,5S)-5-methyltetrahydrofuran-2-yl)-4H-1,2,4-triazol-3-yl)propane-2-sulfonamide or (1R,2S)-1-(5-chloropyrimidin-2-yl)-1-methoxy-N-(4-(1-(methoxymethyl)cyclopropyl)-5-((2R,5R)-5-methyltetrahydrofuran-2-yl)-4H-1,2,4-triazol-3-yl)propane-2-sulfonamide]	1.4 nM
COCCn1c(NS(=O)(=O)[C@@H](C)[C@H](OC)c2ncc(Cl)cn2)nnc1[C@H]1CCC(C)(C)O1 (single isomer, unassigned) [Example 287.0, (1R,2S)-1-(5-chloropyrimidin-2-yl)-N-(5-((R)-5,5-dimethyltetrahydrofuran-2-yl)-4-(2-methoxyethyl)-4H-1,2,4-triazol-3-yl)-1-methoxypropane-2-sulfonamide or (1R,2S)-1-(5-chloropyrimidin-2-yl)-N-(5-((S)-5,5-dimethyltetrahydrofuran-2-yl)-4-(2-methoxyethyl)-4H-1,2,4-triazol-3-yl)-1-methoxypropane-2-sulfonamide]	860 nM
COCCn1c(NS(=O)(=O)[C@@H](C)[C@H](OC)c2ncc(Cl)cn2)nnc1[C@H]1CCC(C)(C)O1 (single isomer, unassigned) [Example 288.0, (1R,2S)-1-(5-chloropyrimidin-2-yl)-N-(5-((R)-5,5-dimethyltetrahydrofuran-2-yl)-4-(2-methoxyethyl)-4H-1,2,4-triazol-3-yl)-1-methoxypropane-2-sulfonamide or (1R,2S)-1-(5-chloropyrimidin-2-yl)-N-(5-((S)-5,5-dimethyltetrahydrofuran-2-yl)-4-(2-methoxyethyl)-4H-1,2,4-triazol-3-yl)-1-methoxypropane-2-sulfonamide]	410 nM
COCC1(n2c(NS(=O)(=O)[C@@H](C)[C@H](OC)c3ncc(Cl)cn3)nnc2[C@H]2CCC(C)(C)O2)CC1 (single isomer, unassigned) [Example 289.0, (1R,2S)-1-(5-chloropyrimidin-2-yl)-N-(5-((R)-5,5-dimethyltetrahydrofuran-2-yl)-4-(1-(methoxymethypcyclopropyl)-4H-1,2,4-triazol-3-yl)-1-methoxypropane-2-sulfonamide or (1R,2S)-1-(5-chloropyrimidin-2-yl)-N-(5-((S)-5,5-dimethyltetrahydrofuran-2-yl)-4-(1-(methoxymethypcyclopropyl)-4H-1,2,4-triazol-3-yl)-1-methoxypropane-2-sulfonamide]	1100 nM
COCC1(n2c(NS(=O)(=O)[C@@H](C)[C@H](OC)c3ncc(Cl)cn3)nnc2[C@H]2CCC(C)(C)O2)CC1 (single isomer, unassigned) [Example 290.0, (1R,2S)-1-(5-chloropyrimidin-2-yl)-N-(5-((R)-5,5-dimethyltetrahydrofuran-2-yl)-4-(1-(methoxymethypcyclopropyl)-4H-1,2,4-triazol-3-yl)-1-methoxypropane-2-sulfonamide or (1R,2S)-1-(5-chloropyrimidin-2-yl)-N-(5-((S)-5,5-dimethyltetrahydrofuran-2-yl)-4-(1-(methoxymethyl)cyclopropyl)-4H-1,2,4-triazol-3-yl)-1-methoxypropane-2-sulfonamide]	23 nM
COc1ncnc(OC)c1-n1c(NS(=O)(=O)[C@@H](C)[C@@H](OC(C)C)c2ncc(Cl)cn2)nnc1[C@H]1CCOC1 (single isomer, unassigned) [Example 291.0, (1S,2S)-1-(5-chloropyrimidin-2-yl)-N-(4-(4,6-dimethoxypyrimidin-5-yl)-5-((R)-tetrahydrofuran-3-yl)-4H-1,2,4-triazol-3-yl)-1-isopropoxypropane-2-sulfonamide or (1S,2S)-1-(5-chloropyrimidin-2-yl)-N-(4-(4,6-dimethoxypyrimidin-5-yl)-5-((S)-tetrahydrofuran-3-yl)-4H-1,2,4-triazol-3-yl)-1-isopropoxypropane-2-sulfonamide]	5.2 nM
COc1ncnc(OC)c1-n1c(NS(=O)(=O)[C@@H](C)[C@@H](OC(C)C)c2ncc(Cl)cn2)nnc1[C@H]1CCOC1 (single isomer, unassigned) [Example 292.0, (1S,2S)-1-(5-chloropyrimidin-2-yl)-N-(4-(4,6-dimethoxypyrimidin-5-yl)-5-((R)-tetrahydrofuran-3-yl)-4H-1,2,4-triazol-3-yl)-1-isopropoxypropane-2-sulfonamide or (1S,2S)-1-(5-chloropyrimidin-2-yl)-N-(4-(4,6-dimethoxypyrimidin-5-yl)-5-((S)-tetrahydrofuran-3-yl)-4H-1,2,4-triazol-3-yl)-1-isopropoxypropane-2-sulfonamide]	18 nM
COc1cccc(OC)c1-n1c(NS(=O)(=O)[C@@H](C)[C@H](OC)c2ncc(Cl)cn2)nnc1[C@H]1CC(=O)N(C)C1 (single isomer, unassigned) [Example 293.0, (1R,2S)-1-(5-chloropyrimidin-2-yl)-N-(4-(2,6-dimethoxyphenyl)-5-((R)-1-methyl-5-oxopyrrolidin-3-yl)-4H-1,2,4-triazol-3-yl)-1-methoxypropane-2-sulfonamide or (1R,2S)-1-(5-chloropyrimidin-2-yl)-N-(4-(2,6-dimethoxyphenyl)-5-((S)-1-methyl-5-oxopyrrolidin-3-yl)-4H-1,2,4-triazol-3-yl)-1-methoxypropane-2-sulfonamide]	100 nM
COc1cccc(OC)c1-n1c(NS(=O)(=O)[C@@H](C)[C@H](OC)c2ncc(Cl)cn2)nnc1[C@@H]1CC(=O)N(C)C1 (single isomer, unassigned) [Example 294.0, (1R,2S)-1-(5-chloropyrimidin-2-yl)-N-(4-(2,6-dimethoxyphenyl)-5-((R)-1-methyl-5-oxopyrrolidin-3-yl)-4H-1,2,4-triazol-3-yl)-1-methoxypropane-2-sulfonamide or (1R,2S)-1-(5-chloropyrimidin-2-yl)-N-(4-(2,6-dimethoxyphenyl)-5-((S)-1-methyl-5-oxopyrrolidin-3-yl)-4H-1,2,4-triazol-3-yl)-1-methoxypropane-2-sulfonamide]	270 nM
CO[C@H](c1ncc(Cl)cn1)[C@H](C)S(=O)(=O)Nc1nnc([C@H]2CCOC2)n1C(C)C (single isomer, unassigned) [Example 297.0, (1R,2S)-1-(5-chloropyrimidin-2-yl)-N-(4-isopropyl-5-((R)-tetrahydrofuran-3-yl)-4H-1,2,4-triazol-3-yl)-1-methoxypropane-2-sulfonamide or (1R,2S)-1-(5-chloropyrimidin-2-yl)-N-(4-isopropyl-5-((S)-tetrahydrofuran-3-yl)-4H-1,2,4-triazol-3-yl)-1-methoxypropane-2-sulfonamide]	1470 nM
CO[C@H](c1ncc(Cl)cn1)[C@H](C)S(=O)(=O)Nc1nnc([C@H]2CCOC2)n1C(C)C (single isomer, unassigned) [Example 298.0, (1R,2S)-1-(5-chloropyrimidin-2-yl)-N-(4-isopropyl-5-((R)-tetrahydrofuran-3-yl)-4H-1,2,4-triazol-3-yl)-1-methoxypropane-2-sulfonamide or (1R,2S)-1-(5-chloropyrimidin-2-yl)-N-(4-isopropyl-5-((S)-tetrahydrofuran-3-yl)-4H-1,2,4-triazol-3-yl)-1-methoxypropane-2-sulfonamide]	1890 nM
CO[C@H](c1ncc(Cl)cn1)[C@H](C)S(=O)(=O)Nc1nnc([C@H]2CCC(C)(C)O2)n1C(C)C (single isomer, unassigned) [Example 299.0, (1R,2S)-1-(5-chloropyrimidin-2-yl)-N-(5-((R)-5,5-dimethyltetrahydrofuran-2-yl)-4-isopropyl-4H-1,2,4-triazol-3-yl)-1-methoxypropane-2-sulfonamide or (1R,2S)-1-(5-chloropyrimidin-2-yl)-N-(5-((S)-5,5-dimethyltetrahydrofuran-2-yl)-4-isopropyl-4H-1,2,4-triazol-3-yl)-1-methoxypropane-2-sulfonamide]	940 nM
CO[C@H](c1ncc(Cl)cn1)[C@H](C)S(=O)(=O)Nc1nnc([C@H]2CCC(C)(C)O2)n1C(C)C (single isomer, unassigned) [Example 300.0, (1R,2S)-1-(5-chloropyrimidin-2-yl)-N-(5-((R)-5,5-dimethyltetrahydrofuran-2-yl)-4-isopropyl-4H-1,2,4-triazol-3-yl)-1-methoxypropane-2-sulfonamide or (1R,2S)-1-(5-chloropyrimidin-2-yl)-N-(5-((S)-5,5-dimethyltetrahydrofuran-2-yl)-4-isopropyl-4H-1,2,4-triazol-3-yl)-1-methoxypropane-2-sulfonamide]	1400 nM
CO[C@H](c1ncc(Cl)cn1)[C@H](C)S(=O)(=O)Nc1nnc([C@H]2COCCO2)n1C(C)C (single isomer, unassigned) [Example 301.0, (1R,2S)-N-(5-((S)-1,4-dioxan-2-yl)-4-isopropyl-4H-1,2,4-triazol-3-yl)-1-(5-chloropyrimidin-2-yl)-1-methoxypropane-2-sulfonamide or (1R,2S)-N-(5-((R)-1,4-dioxan-2-yl)-4-isopropyl-4H-1,2,4-triazol-3-yl)-1-(5-chloropyrimidin-2-yl)-1-methoxypropane-2-sulfonamide]	2900 nM
CO[C@H](c1ncc(Cl)cn1)[C@H](C)S(=O)(=O)Nc1nnc([C@H]2COCCO2)n1C(C)C (single isomer, unassigned) [Example 302.0, (1R,2S)-N-(5-((S)-1,4-dioxan-2-yl)-4-isopropyl-4H-1,2,4-triazol-3-yl)-1-(5-chloropyrimidin-2-yl)-1-methoxypropane-2-sulfonamide or (1R,2S)-N-(5-((R)-1,4-dioxan-2-yl)-4-isopropyl-4H-1,2,4-triazol-3-yl)-1-(5-chloropyrimidin-2-yl)-1-methoxypropane-2-sulfonamide]	710 nM
